Read-outs that look alike come from different tables or passages of the source. Blank lines part the entries; values can stand above or below the molecule they belong to.
Tests used:
[1] = solid form, known from prior patents (EP 298 650 B1, CA 1,314,876), cited from earlier work
[2] = Hygroscopicity of azithromycin forms; format: physicochemical; conditions: solid form
[3] = Extended vacuum drying, water (Karl-Fischer) and isopropanol (gas chromatography) content; format: physicochemical; conditions: vacuum 1-10 mm Hg, 50° C. to 60° C., beyond 12-24 hours
Procedure: According to this invention, azithromycin monohydrate isopropanol clathrate contains three molecules of isopropanol for every ten molecules of azithromycin monohydrate. The process comprises the dissolution of azithromycin in isopropanol to which water is added slowly while stirring, resulting in the precipitation of crystalline azithromycin monohydrate isopropanol clathrate. The volume of solvent used is such as to be sufficient to dissolve azithromycin. The addition of the water is carried out between 0° and 30° C. and preferably between 15° C. to 25° C. The product is filtered and washed with a mixture of water-isopropanol and dried under vacuum (1-10 mm Hg) at 50° C. to 60° C. for 12-24 hours to obtain azithromycin monohydrate isopropanol clathrate in high yields. […] The water content of azithromycin monohydrate isopropanol clathrate was measured by the Karl-Fischer method and its isopropanol content was determined by gas chromatography.

Molecule: CC[C@H]1OC(=O)[C@H](C)[C@@H](O[C@H]2C[C@@](C)(OC)[C@@H](O)[C@H](C)O2)[C@H](C)[C@@H](O[C@@H]2O[C@H](C)C[C@H](N(C)C)[C@H]2O)[C@](C)(O)C[C@@H](C)CN(C)[C@H](C)[C@@H](O)[C@]1(C)O [Azithromycin monohydrate, azithromycin monohydrate]
- hygroscopicity ([1]; monohydrate): hygroscopic

Molecule: CC[C@H]1OC(=O)[C@H](C)[C@@H](O[C@H]2C[C@@](C)(OC)[C@@H](O)[C@H](C)O2)[C@H](C)[C@@H](O[C@@H]2O[C@H](C)C[C@H](N(C)C)[C@H]2O)[C@](C)(O)C[C@@H](C)CN(C)[C@H](C)[C@@H](O)[C@]1(C)O [azithromycin dihydrate]
- hygroscopicity ([1]; dihydrate): not hygroscopic

- hygroscopicity [2]: not hygroscopic
Molecule: azithromycin monohydrate isopropanol clathrate
- effect of extension of vacuum drying on water and isopropanol content [3]: does not reduce either the water content or the isopropanol content
